Read-outs that look alike come from different tables or passages of the source.
Experiments:
[1] = test system: MCF7 breast cancer cell line; assay: Cell metabolic activity / viability (MTT assay) on MCF7; assay type: cell-based, human; conditions: for IC50: MTT, tested 0 to 500 µM;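 on all read-outs here: MTT optical density read-out in human MCF7 cells, normalised to DMSO vehicle-treated cells as 100%, with IC50 derived from fitted concentration–response curves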
Protocol: Cell metabolic activity of HFF-1 and MCF7 cells was assessed by MTT (3-(4,5-Dimethylthiazol-2-yl)-2,5-Diphenyltetrazolium Bromide) test (Sigma Aldrich, Milan, Italy). […] After the established exposure times, cells were incubated with MTT (0.5 mg/mL) and the optical density was measured as reported elsewhere [63]. Results were expressed as the percentage of cells in the presence of vehicle (DMSO) set as 100% and each experiment was performed in triplicate (n = 3). Concentration–response curves and IC50 were fitted and calculated with GraphPad Prism 5.0 (GraphPad Software, San Diego, CA, USA).

[2] = test system: normal human skin fibroblast (HFF-1); assay: Cell metabolic activity (MTT assay) on HFF-1; assay type: cell-based
Protocol: The compounds were then biologically characterized in terms of cytotoxicity occurrence (LDH released) on MCF7 cells. […] After 24 h of treatment, a dose-dependent decrease in cell metabolic activity can be registered for all the compounds with respect to DMSO alone. […] Similar results were obtained also after 72 h of treatment.
Human skin fibroblasts (HFF-1, CVCL_3285) and human breast cancer MCF7 (HTB-22™, CVCL_0031) were purchased from ATCC and maintained in Dulbecco’s modified Eagle’s medium (DMEM) high glucose (EuroClone, Milan, Italy) supplemented with 10% of fetal bovine serum (FBS) and 1% of penicillin/streptomycin (Gibco—Thermo Fisher Scientific, MD, USA).
Cell metabolic activity of HFF-1 and MCF7 cells was assessed by MTT (3-(4,5-Dimethylthiazol-2-yl)-2,5-Diphenyltetrazolium Bromide) test (Sigma Aldrich, Milan, Italy). […] After the established exposure times, cells were incubated with MTT (0.5 mg/mL) and the optical density was measured as reported elsewhere. Results were expressed as the percentage of cells in the presence of vehicle (DMSO) set as 100% and each experiment was performed in triplicate (n = 3). Concentration–response curves and IC50 were fitted and calculated with GraphPad Prism 5.0 (GraphPad Software, San Diego, CA, USA).

[3] = test system: MCF7 cells; assay: Hematoxylin/eosin staining; assay type: cell-based, human; conditions: MCF7, 50 µM, 72 h, vs DMSO
Protocol: The effectiveness on MCF7 cells of compound 1c over the other compounds is confirmed by the hematoxylin/eosin staining (H&E) performed after 72 h of treatment at 50 µM. […] At a higher magnification (panels C and D), MCF7 cells show chromatin condensation (green arrows), as a typical sign of the initiation of cell death.
MCF7 cells were seeded (7 × 10^4 cells/well) in well glasses (Millicell® EZ slide, Merck Millipore, Burlington, MA, USA). After 24 h from seeding, cells were exposed to compound 1c at 50 µM for 72 h. Next, supernatants were removed, and cells were washed twice with PBS with calcium and magnesium (Euro Clone, Milan, Italy). MCF7 cells were fixed in the presence of p-formaldehyde 4% and stained with hematoxylin/eosin as reported elsewhere.

[4] = target: T1, human aromatase (Homo sapiens, UniProt P11511); assay: Aromatase inhibition, fluorimetric assay kit (Aromatase-CYP19A Inhibitor Screening kit, BioVision); assay type: biochemical
T1 construct: purchased BioVision, Milpitas, CA, USA
T1 sequence (P11511 1-503): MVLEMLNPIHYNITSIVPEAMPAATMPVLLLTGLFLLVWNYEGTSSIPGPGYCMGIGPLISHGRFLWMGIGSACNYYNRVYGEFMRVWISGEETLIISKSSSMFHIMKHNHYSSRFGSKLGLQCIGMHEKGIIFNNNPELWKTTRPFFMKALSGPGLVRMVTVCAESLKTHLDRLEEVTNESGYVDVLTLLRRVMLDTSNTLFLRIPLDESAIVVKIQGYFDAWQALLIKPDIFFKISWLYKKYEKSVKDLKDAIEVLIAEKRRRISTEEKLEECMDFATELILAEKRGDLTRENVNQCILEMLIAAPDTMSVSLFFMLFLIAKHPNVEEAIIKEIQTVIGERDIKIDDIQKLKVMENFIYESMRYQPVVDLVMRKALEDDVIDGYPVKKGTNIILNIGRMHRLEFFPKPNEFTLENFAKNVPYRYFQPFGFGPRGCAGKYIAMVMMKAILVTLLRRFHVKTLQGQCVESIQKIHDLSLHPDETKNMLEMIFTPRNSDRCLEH
Protocol: The activity was measured each minute for 60 min and the value obtained for each compound after 10 min was chosen to calculate the percentage of the aromatase inhibition.
The aromatase inhibitory activity was determined using a commercial fluorimetric assay kit (Aromatase-CYP19A Inhibitor Screening kit, BioVision, Milpitas, CA, USA), as reported elsewhere. The assay utilizes a fluorogenic aromatase substrate that is converted into a highly fluorescent metabolite detected in the visible range (Ex/Em 488/527 nm). […] During the incubation, the Aromatase Substrate/NADP+ mixture was prepared, and the reaction was started by adding 30 µL of this solution to each well (aside from the background control), reaching a final reaction volume of 100 µL/well. The fluorescence emission (527 nm) was measured immediately (within 1 min) by means of a fluorometer equipped with a 488 nm filter (GloMax®-Multi Detection System, Promega, Madison, WI, USA) and afterwards monitored for 60 min. […] The assay was performed in the same experimental conditions used for the initial screening of compounds. Dose–response curves were fitted with GraphPad Prism 5.0 (GraphPad Software, San Diego, CA, USA).

[5] = test system: MCF7 cells; assay: Cytotoxicity test (lactate dehydrogenase release); assay type: cell-based, human; conditions: 24 h
Protocol: To assess whether the decrease in metabolic activity is a consequence of cytotoxic occurrence in the presence of compounds 1b, 1c, and 1j, lactate dehydrogenase (LDH) released from MCF7 was measured in response to loading concentrations of 0–250 µM after a 24 h exposure. […] It is, therefore, plausible to assume that all tested compounds exert their anti-proliferative effect on MCF7 cells through cytotoxic induction and 1c is the most promising compound, being active already at lower doses.
MCF7 cells were seeded and stimulated as previously described for the MTT test. After the exposure time, cell supernatants were collected, centrifuged at 450× g for 4 min, and stored on ice. In order to quantify the cytotoxicity of loading concentrations of compounds 1b, 1c, and 1j (0–250 µM), the CytoTox 96® Non-Radioactive Cytotoxicity Assay (Promega Corporation, Madison, WI, USA) was performed as previously reported. The results were normalized on MTT absorbances and expressed as fold increases on the LDH released by cultures in the presence of vehicle (DMSO) set as 1.

SMILES: Cc1ccc(S(=O)(=O)Oc2ccc(/C=C/c3ccccc3)cc2)cc1[N+](=O)[O-] [1c, 4-[(E)-2-Phenylvinyl]phenyl 4-methyl-3-nitrobenzenesulfonate]
- IC50 ([1]; Homo sapiens, MCF7, 24 h, 24 h, read-out: MCF7 Cells IC50 24 h): 29.2 µM
- IC50 ([1]; Homo sapiens, MCF7, 72 h, 72 h, read-out: MCF7 Cells IC50 72 h): 40 µM
- Viability (% of control) - 24 h ([1]; MCF7, 10 µM, 24 h): 85.23 ± 1.29 % of control
- Viability (% of control) - 72 h ([1]; MCF7, 10 µM, 72 h): 96.62 ± 6.99 % of control
- Viability (% of control) - 24 h ([1]; MCF7, 25 µM, 24 h): 73.08 ± 2.67 % of control
- Viability (% of control) - 72 h ([1]; MCF7, 25 µM, 72 h): 91.88 ± 5.31 % of control
- Viability (% of control) - 24 h ([1]; MCF7, 50 µM, 24 h): 37.39 ± 0.66 % of control
- Metabolically active cells ([1]; MCF7, 50 µM, 24 h, DMSO alone = 100%): around 60%
- Viability (% of control) - 72 h ([1]; MCF7, 50 µM, 72 h): 46.19 ± 1.67 % of control
- Viability (% of control) - 24 h ([1]; MCF7, 100 µM, 24 h): 36.17 ± 1.56 % of control
- Viability (% of control) - 72 h ([1]; MCF7, 100 µM, 72 h): 35.22 ± 2.21 % of control
- Viability (% of control) - 24 h ([1]; MCF7, 250 µM, 24 h): 38.64 ± 1.23 % of control
- Viability (% of control) - 72 h ([1]; MCF7, 250 µM, 72 h): 38.30 ± 4.07 % of control
- Viability (% of control) - 24 h ([1]; MCF7, 500 µM, 24 h): 34.30 ± 1.43 % of control
- Viability (% of control) - 72 h ([1]; MCF7, 500 µM, 72 h): 15.08 ± 0.67 % of control
- IC50 ([1]; 24 h, read-out: MCF7 Cells IC50 24 h): 29.2 ± 1.9 µM
- IC50 ([1]; 72 h, read-out: MCF7 Cells IC50 72 h): 39.9 ± 2.1 µM
- HFF-1 viability (in words) ([2]; 0–250 µM, 24 and 72 h): significant reduction in viability only at the maximum concentration and after 72 h of treatment
- Selectivity index (SI) over normal fibroblasts ([2]; HFF-1 vs MCF7, after 24 h): 1.82
- Cell number by H&E staining (in words) [3]: cell number is dramatically decreased
- inhibition at 1 µM [4]: 91%
- Potency in inhibiting aromatase relative to RSV ([4]; compared to RSV): twentyfold more potent than RSV
- IC50 ([4]; tested at concentrations from 0.01 to 100 μM, mean of triplicate determinations): 3.17 µM
- LDH release, dose dependence (in words) ([5]; MCF7, 0–250 µM): raises only at the highest concentration administered (250 µM)
- LDH released, fold vs vehicle (DMSO) set as 1 ([5]; MCF7, 50 µM): three folds more
- LDH released, fold vs vehicle (DMSO) set as 1 ([5]; MCF7, 250 µM): almost five folds more

— publication PMC8537897, “Design, Synthesis and Biological Evaluation of Aromatase Inhibitors Based on Sulfonates and Sulfonamides of Resveratrol” (Pharmaceuticals, 2021)
